Laboratory results: PMC6271241, “Several Human Cyclin-Dependent Kinase Inhibitors, Structurally Related to Roscovitine, As New Anti-Malarial Agents” (Molecules, 2014)
Like-named read-outs stand apart in the source and are kept apart here.

Experiments:
Pf7G8 = experiment: [3H]hypoxanthine incorporation growth assay, Pf7G8; assay type: cell-based, Plasmodium falciparum; conditions: for IC50: Plasmodium falciparum
Procedure: (§1) A selection of 15 molecules 4b–c, 10–13 representing the different 2,6,9-trisubstituted purine series, including newly synthesized products was screened as anti-malarial agents on two different P. falciparum strains, Pf3D7, a standard drug-sensitive African stain, and Pf7G8, a brazilian chloroquino-resistant strain (Figure 3). The compound activity was evaluated during the parasitic erythocytic cycle, by the means of a [^3H] hypoxanthine incorporation assay. It is directly correlated to parasite viability, as described in the experimental section.
(§2) At first, the activity of the fifteen compounds was screened at three different concentrations (10, 50 and 100 µM) on Pf3D7. Chloroquine which is not a kinase inhibitor, but which is the antimalarial reference drug was used as the positive control. […] Chloroquine was again used as a positive control.
(§3) Compounds were tested against synchronous ring-stage parasites of Pf3D7 and Pf7G8 strains. Drugs testing were carried out in 96-well microtiter plates. The chloroquine (CQ) diphosphate was purchased from Sigma (Lyon, France). […] For each assay, each drug dilution was analyzed in triplicate.
(§4) For the in vitro isotopic microtest, 200 µL of the suspension of synchronous parasitized red blood cells with >90% of the parasites at the ring stage (final parasitaemia, 0.3%; final haematocrit, 4%) per well were plated in 96-well plates that contained serial CQ or compounds concentrations. […] The plates were incubated at 37 °C, in an atmosphere of 5% O2, 5% CO2, and 90% N2 for 48 h. Immediately after incubation, plates were frozen and then thawed to lyse the erythrocytes. Cultures were harvested onto glass fiber filters and washed using a cell harvester (FilterMAT; Skatron Instruments, Dalsletta, Norway). The dried fiber filter papers were mixed with 2 mL of scintillation fluid (OptiScint; Perkin-Elmer, Waltham, UK). […] The initial value and the asymptotic result for high concentrations were fixed to 0% and 100%, respectively, available on the web.

Pf3D7 = experiment: [3H]hypoxanthine incorporation growth assay, Pf3D7; assay type: cell-based, Plasmodium falciparum; conditions: for IC50: Plasmodium falciparum
Procedure: as §1, §2, §3, §4

DYRK1A [1] = test system: DYRK1A; parameters: method as in PMID 17850214; conditions: at 1 µM; cited from earlier work
[2] = parameters: method as in PMID 12809528; conditions: cited from earlier work
CK1δ/ε [3] = test system: CK1δ/ε; parameters: method as in PMID 18698753; conditions: read-out: IC50 CK1, cited from earlier work
GSK-3α/β = GSK-3α/β kinase assay (GS-1 peptide); conditions: read-out: IC50 GSK-3αβ; 15 µM ATP; Table 1; >10 = no activity at 10 µM
CDK1/cyclin B [4] = experiment: CDK1/cyclin B kinase assay ([γ-33P] ATP, histone H1); assay type: biochemical, starfish; conditions: 15 µM ATP, Table 1
Procedure: (§5) CDK1/cyclin B (M phase starfish oocytes, native), CDK2/cyclin A (human, recombinant) and CDK5/p25 (human, recombinant) were prepared as previously described. […] ATP (3000 Ci/mmol; 10 mCi/mL) in a final volume of 30 µL. After 30 min incubation at 30 °C, 25 µL aliquots of supernatant were spotted onto 2.5 cm × 3 cm pieces of Whatman P81 phosphocellulose paper, and, 20 s later, the filters were washed five times (for at least 5 min each time) in a solution of 10 mL of phosphoric acid/liter of water. The wet filters were counted in the presence of 1 mL of ACS (Amersham, Pittsburgh, PA, USA) scintillation fluid.

CK1δ/ε [5] = experiment: CK1δ/ε kinase assay (CKS peptide); conditions: read-out: IC50 CK1δ/ε; 15 µM ATP; Table 1
CDK5/p25 = target: T1, CDK5/p25 (Homo sapiens, UniProt Q00535); experiment: CDK5/p25 kinase assay ([γ-33P] ATP, histone H1); assay type: biochemical
T1 construct: made in house
Procedure: as §5

N2A-APP659 cell model = test system: N2A-APP659 cell model; parameters: method as in PMID 18698753; conditions: dose-dependent; cited from earlier work
DYRK1A [6] = target: DYRK1A (Homo sapiens, UniProt Q13627); experiment: DYRK1A kinase assay (Woodtide); assay type: biochemical; conditions: 15 µM ATP; Table 1
CDK2/cyclin A = target: T2, CDK2/cyclin A (Homo sapiens, UniProt P24941); experiment: CDK2/cyclin A kinase assay ([γ-33P] ATP, histone H1); assay type: biochemical; conditions: 15 µM ATP, Table 1
T2 construct: made in house
Procedure: as §5

CDK1/cyclin B [7] = experiment: CDK1/cyclin B kinase assay ([γ-33P] ATP, histone H1); assay type: biochemical, starfish; conditions: Table A1; read-out: IC50 on HsCDKs HsCDK1
CDK1/cyclin B [8] = test system: CDK1/cyclin B; parameters: method as in PMID 18698753; conditions: previously reported; cited from earlier work
CK1 = test system: CK1; parameters: method as in PMID 10662688; conditions: cited from earlier work
[9] = CDK5/p25, 15 µM ATP, Table 1, read-out: IC50 CDK5
[10] = Table A1, read-out: IC50 on HsCDKs HsCDK5
[11] = Table A1, N.I. = not inhibitor, read-out: IC50 on P. falciparum Strains Pf7G8
[12] = chloroquino-resistant strain, 48 h, Table 2, read-out: Growth IC50 Pf7G8
[13] = 48 h, drug-sensitive strain, 48 h, Table 2, read-out: Growth IC50 Pf3D7
[14] = Table A1, N.I. = not inhibitor, read-out: IC50 on P. falciparum Strains Pf3D7

T1 sequence (Q00535 whole entry): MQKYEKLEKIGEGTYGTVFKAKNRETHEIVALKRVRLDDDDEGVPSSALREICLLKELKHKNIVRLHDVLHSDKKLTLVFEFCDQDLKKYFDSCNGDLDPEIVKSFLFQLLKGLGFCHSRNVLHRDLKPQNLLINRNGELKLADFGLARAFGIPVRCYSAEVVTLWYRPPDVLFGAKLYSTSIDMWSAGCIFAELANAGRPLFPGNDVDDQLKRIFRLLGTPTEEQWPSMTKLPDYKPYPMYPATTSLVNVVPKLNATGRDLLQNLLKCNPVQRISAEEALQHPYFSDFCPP
T1 sequence (Q15078 99-307 partner limits assumed): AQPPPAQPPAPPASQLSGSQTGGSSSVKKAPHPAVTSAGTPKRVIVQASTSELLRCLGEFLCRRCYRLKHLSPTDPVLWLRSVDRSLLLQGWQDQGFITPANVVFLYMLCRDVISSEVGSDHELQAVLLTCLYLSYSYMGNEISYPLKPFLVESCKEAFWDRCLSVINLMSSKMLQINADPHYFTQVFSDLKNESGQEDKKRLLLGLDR

SMILES	IC50 (GSK-3α/β)	IC50 (CDK1/cyclin B [4])	IC50 (CK1δ/ε [5])	IC50 (CDK5/p25; [9])	IC50 (CDK5/p25; [10])	IC50 (CDK1/cyclin B [7])	IC50 on P. falciparum Strains Pf7G8 (Pf7G8; Table A1, N.I. = not inhibitor)	IC50 on P. falciparum Strains Pf3D7 (Pf3D7; Table A1, N.I. = not inhibitor)	further results
CCN(CC)CCCC(C)Nc1ccnc2cc(Cl)ccc12 (centres unmarked) [Chloroquine, chloroquine, reference compound]	–	–	–	–	–	–	–	–	IC50 (Pf7G8; 48 h, read-out: Growth IC50 Pf7G8): 180 nM; IC50 (Pf3D7; 48 h, read-out: Growth IC50 Pf3D7): 30 nM
CC[C@H](CO)Nc1nc(NCc2ccccc2)c2ncn(C(C)C)c2n1 [Compound 1, (R)-roscovitine]	–	–	–	–	–	–	–	–	remaining DYRK1A kinase activity (DYRK1A [1]): 87%; maximal tolerated dose ([2]; human, daily oral dose): 2 g; oral bioavailability ([2]; humans, oral administration): good oral bioavailability
CC(C)n1cnc2c(Nc3ccccn3)nc(Nc3ncccn3)nc21 [Compound 4b]	> 10000 nM	–	> 10000 nM	> 10000 nM	> 10000 nM	–	N.I.	N.I.	IC50 (DYRK1A [6]): 8000 nM
CC(C)n1cnc2c(Nc3cccnc3)nc(Nc3ncccn3)nc21 [Compound 4c]	> 10000 nM	3000 nM	> 10000 nM	4300 nM	–	3000 nM	N.I.	N.I.	IC50 (DYRK1A [6]): 8000 nM; IC50 (CDK2/cyclin A): 1800 nM
CC(C)n1cnc2c(Nc3ccncc3)nc(Nc3ncccn3)nc21 [Compound 4d]	> 10000 nM	9300 nM	2800 nM	7000 nM	–	–	–	–	IC50 (DYRK1A [6]): 5200 nM
CC(C)n1cnc2c(Nc3cncnc3)nc(Nc3cncnc3)nc21 [Compound 5]	–	–	–	400 nM	–	–	–	–	IC50 (CDK2/cyclin A): 200 nM
CC(C)n1cnc2c(Nc3cnccn3)nc(Nc3cnccn3)nc21 [Compound 6]	> 10000 nM	–	1100 nM	–	–	–	–	–	IC50 (DYRK1A [6]): 500 nM; IC50 (CDK2/cyclin A): 2800 nM
CC(C)n1cnc2c(Nc3cccc(-c4cccnc4)c3)nc(Cl)nc21 [Compound 17]	–	–	–	–	50 nM	180 nM	N.I.	N.I.	–
CC(C)n1cnc2c(Nc3ccc(Br)cc3)nc(-c3cccnc3)nc21 [Compound 18]	–	–	–	–	730 nM	410 nM	N.I.	N.I.	IC50 (CK1δ/ε [3]; previously reported): 100 nM; IC50 (CDK1/cyclin B [8]): 410 nM
CC(C)n1cnc2c(Nc3ccc(Br)cc3)nc(-c3ccncc3)nc21 [Compound 22]	–	–	–	–	600 nM	600 nM	–	–	IC50 (CK1δ/ε [3]; previously reported): 80 nM; IC50 (Pf7G8; [11]): 990 nM; IC50 (Pf7G8; [12]): 990 nM; IC50 (CDK1/cyclin B [8]): 590 nM; IC50 (Pf3D7; [13]): 1390 nM; IC50 (Pf3D7; [14]): 1390 nM
NC1=NC(=O)/C(=C2\CCNC(=O)c3[nH]c(Br)cc32)N1 [hymenialdisine]	–	–	–	–	–	–	–	–	IC50 (CK1): 30 nM

The next lines start with results.

IC50 (GSK-3α/β)	IC50 (CDK1/cyclin B [4])	IC50 (CK1δ/ε [5])	IC50 (CDK5/p25; [9])	IC50 (CDK5/p25; [10])	IC50 (CDK1/cyclin B [7])	SMILES	IC50 on P. falciparum Strains Pf7G8 (Pf7G8; Table A1, N.I. = not inhibitor)	IC50 on P. falciparum Strains Pf3D7 (Pf3D7; Table A1, N.I. = not inhibitor)	further results
> 10000 nM	220 nM	10 nM	80 nM	–	–	CC[C@H](CO)Nc1nc(Nc2cccc(-c3ccccn3)c2)c2ncn(C(C)C)c2n1 [Compound 3]	–	–	IC50 (CK1δ/ε [3]): 14 nM; amyloïd-β production (N2A-APP659 cell model): antagonizes amyloïd-β production
1000 nM	–	1000 nM	1000 nM	–	–	CC(C)n1cnc2c(Nc3ccc(Br)cc3)nc(Nc3ncccn3)nc21 [Compound 4a]	–	–	IC50 (DYRK1A [6]): 3000 nM
> 10000 nM	10 nM	200 nM	30 nM	–	10 nM	CC[C@H](CO)Nc1nc(Nc2ccc(-c3cccnc3)nc2)c2ncn(C(C)C)c2n1 [Compound 10, (R)-2-(1-Hydroxybut-2-ylamino)-6-[6-(3-pyridyl)pyrid-3-ylamino]-9-iso-propylpurine]	N.I.	N.I.	–
> 10000 nM	800 nM	40 nM	400 nM	–	800 nM	CC[C@@H](CO)Nc1nc(Nc2cccc(-c3ccccn3)c2)c2ncn(C(C)C)c2n1 [Compound 11, (S)-2-(1-Hydroxybut-2-ylamino)-6-[3-(2-pyridyl)phenylamino]-9-iso-propylpurine]	–	–	IC50 (Pf7G8; [11]): 2060 nM; IC50 (Pf7G8; [12]): 2060 nM; IC50 (Pf3D7; [13]): 6530 nM; IC50 (Pf3D7; [14]): 6530 nM
> 10000 nM	200 nM	200 nM	100 nM	–	200 nM	CC[C@@H](CO)Nc1nc(Nc2cccc(-c3cccnc3)c2)c2ncn(C(C)C)c2n1 [Compound 12, (S)-2-(1-Hydroxybut-2-ylamino)-6-[3-(3-pyridyl)phenylamino]-9-iso-propylipurine]	–	–	IC50 (Pf7G8; [11]): 1550 nM; IC50 (Pf7G8; [12]): 1550 nM; IC50 (Pf3D7; [14]): 5370 nM
> 10000 nM	200 nM	500 nM	–	–	200 nM	CC[C@@H](CO)Nc1nc(Nc2ccc(-c3ccccn3)cc2)c2ncn(C(C)C)c2n1 [Compound 13, (S)-2-(1-Hydroxybut-2-ylamino)-6-[4-(2-pyridyl)phenylamino]-9-iso-propylpurine]	N.I.	N.I.	IC50 (CDK2/cyclin A): 200 nM
–	–	–	–	30 nM	50 nM	CC[C@H](CO)Nc1nc(Nc2ccc(-c3ccccn3)cc2)c2ncn(C(C)C)c2n1 [Compound 14]	N.I.	N.I.	–
–	–	–	–	50 nM	180 nM	CC[C@H](CO)Nc1nc(Nc2cccc(-c3cccnc3)c2)c2ncn(C(C)C)c2n1 [Compound 15]	N.I.	N.I.	–
–	–	–	–	100 nM	180 nM	CC[C@@H](CO)Nc1nc(Nc2ccc(-c3cncnc3)cc2)c2ncn(C(C)C)c2n1 [Compound 16]	N.I.	N.I.	–
–	–	–	–	270 nM	500 nM	CC[C@@H](CO)Nc1nc(Nc2ccc(-c3ncccn3)cc2)c2ncn(C(C)C)c2n1 [Compound 19]	–	–	IC50 (Pf7G8; [11]): 1820 nM; IC50 (Pf7G8; [12]): 1820 nM; IC50 (Pf3D7; [13]): 7130 nM; IC50 (Pf3D7; [14]): 7130 nM
–	–	–	–	500 nM	700 nM	CC[C@@H](CO)Nc1nc(Nc2cccc(-c3ncccn3)c2)c2ncn(C(C)C)c2n1 [Compound 20]	–	–	IC50 (Pf7G8; [11]): 4660 nM; IC50 (Pf7G8; [12]): 4660 nM; IC50 (Pf3D7; [13]): 22200 nM; IC50 (Pf3D7; [14]): 22200 nM
–	–	–	–	60 nM	40 nM	CC[C@H](CO)Nc1nc(Nc2ccc(-c3cncnc3)cc2)c2ncn(C(C)C)c2n1 [Compound 21]	–	–	IC50 (Pf7G8; [11]): 690 nM; IC50 (Pf7G8; [12]): 690 nM; IC50 (Pf3D7; [13]): 3050 nM; IC50 (Pf3D7; [14]): 3050 nM
